This note sets out measurements from PMC6981816, “Characterization of Effectiveness in Concerted Ih Inhibition and IK(Ca) Stimulation by Pterostilbene (Trans-3,5-dimethoxy-4′-hydroxystilbene), a Stilbenoid” (International Journal of Molecular Sciences, 2020).

This test has as its target T1, large-conductance Ca2+-activated K+ (BKCa) channel (IK(Ca)) (Rattus norvegicus, UniProt Q62976).
T1 construct: gene Kcnma1; native channel in GH3 pituitary cells
Kind of test: whole-cell patch clamp of IK(Ca), concentration-response; reversed by verruculogen. Format: cell-based. In general terms: Patch clamp records ionic current or voltage across a cell membrane.

T1 sequence (Q62976 whole entry): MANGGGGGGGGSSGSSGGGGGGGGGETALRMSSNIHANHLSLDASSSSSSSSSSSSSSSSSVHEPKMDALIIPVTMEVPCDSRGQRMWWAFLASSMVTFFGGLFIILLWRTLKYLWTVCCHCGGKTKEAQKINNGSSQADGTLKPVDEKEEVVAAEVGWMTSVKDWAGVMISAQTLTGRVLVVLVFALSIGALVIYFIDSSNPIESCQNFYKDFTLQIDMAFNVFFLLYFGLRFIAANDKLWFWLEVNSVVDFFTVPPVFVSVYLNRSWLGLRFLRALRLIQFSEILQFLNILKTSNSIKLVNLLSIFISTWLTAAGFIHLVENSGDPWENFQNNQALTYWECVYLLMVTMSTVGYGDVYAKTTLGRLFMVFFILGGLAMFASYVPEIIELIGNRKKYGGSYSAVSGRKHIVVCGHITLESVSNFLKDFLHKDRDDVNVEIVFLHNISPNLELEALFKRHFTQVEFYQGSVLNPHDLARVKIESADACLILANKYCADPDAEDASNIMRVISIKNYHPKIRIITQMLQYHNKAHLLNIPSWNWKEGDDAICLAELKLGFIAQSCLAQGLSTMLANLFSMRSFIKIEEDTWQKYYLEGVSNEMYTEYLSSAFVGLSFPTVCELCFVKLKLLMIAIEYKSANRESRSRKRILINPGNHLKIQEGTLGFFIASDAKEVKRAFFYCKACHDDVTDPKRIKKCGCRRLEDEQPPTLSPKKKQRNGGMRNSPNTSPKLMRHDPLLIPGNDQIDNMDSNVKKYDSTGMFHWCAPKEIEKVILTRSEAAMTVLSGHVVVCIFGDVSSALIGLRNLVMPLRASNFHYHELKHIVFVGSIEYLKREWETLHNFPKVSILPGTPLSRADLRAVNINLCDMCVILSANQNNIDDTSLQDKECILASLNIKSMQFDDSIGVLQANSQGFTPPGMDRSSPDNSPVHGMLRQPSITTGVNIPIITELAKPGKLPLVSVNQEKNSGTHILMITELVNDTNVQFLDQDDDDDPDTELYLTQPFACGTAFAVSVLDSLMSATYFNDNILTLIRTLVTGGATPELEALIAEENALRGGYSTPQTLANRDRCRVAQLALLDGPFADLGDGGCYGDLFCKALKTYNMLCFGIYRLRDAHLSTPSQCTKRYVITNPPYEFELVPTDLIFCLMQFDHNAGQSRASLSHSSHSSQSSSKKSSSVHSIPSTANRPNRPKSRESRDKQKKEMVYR

The term EC50 denotes the concentration at which the effect is half-maximal. A low value points to an effect from little substance. With `COc1cc(/C=C/c2ccc(O)cc2)cc(OC)c1` [PTER, trans-3,5-dimethoxy-4′-hydroxystilbene], the 50% effective concentration (EC50) came to 2.23 µM.
